# Data as given in patent US20260285853A1, “COMPOUNDS AND METHODS FOR MODULATING SPLICING” (REMIX THERAPEUTICS INC., priority 2023, published 2026).
# Columns and labels:
# Format in all cases: cell-based
# HTT mRNA [1] = test: Splicing RT-qPCR assay (THP), Table 2A; conditions: Table 2A, THP; for AC50: HTT alternative junction (AJ) mRNA, read-out: HTT AJ (AC50, increase in alternative junction mRNA); for IC50: HTT canonical junction (CJ) mRNA, read-out: HTT CJ (IC50, decrease in canonical junction mRNA)
# MYB mRNA [2] = test: Gene panel canonical junction qPCR assay, decrease in CJ mRNA, Table 3; conditions: decrease in CJ mRNA levels, canonical junction qPCR, gene panel
# Procedure, shortened: (§1)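 IC50 denotes the concentration giving 50% decrease in canonical-junction mRNA, fitted by 4-parameter logistic to percentage response derived from ΔΔCt versus housekeeping gene and DMSO control. Cells (A673 or K562) exposed 24 h to 11-point 3-fold serial dilutions from 10 uM top, DMSO ≤0.25%; junction-spanning primer/probe qPCR.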
# HTT mRNA [3] = test: as above; conditions: decrease in CJ mRNA levels, canonical junction qPCR, gene panel
# Procedure, shortened: as §1
# [4] = system: SH-SY5Y (human neuroblastoma) cells; test: Cell viability, Cell Titer Glo 2.0 assay; conditions: read-out: Viability SHSY5Y.3 GI50
# Procedure, shortened: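 Viability was read by CellTiter-Glo 2.0 luminescence after a 72-hour compound exposure at 37° C. under 5% CO2. Cells were in IMDM plus 10% FBS containing 0.1% DMSO, and medium-only wells gave the blank.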
# MYB mRNA [5] = test: Splicing RT-qPCR assay (THP), Table 2A; conditions: Table 2A, THP; for AC50: MYB alternative junction (AJ) mRNA, read-out: MYB AJ (AC50, increase in alternative junction mRNA); for IC50: MYB canonical junction (CJ) mRNA, read-out: MYB CJ (IC50, decrease in canonical junction mRNA)
Compound,AC50 (HTT mRNA [1]) [nM],IC50 (HTT mRNA [1]) [nM],IC50 (MYB mRNA [2]) [nM],IC50 (HTT mRNA [3]) [nM],GI50 [4] [nM],AC50 (MYB mRNA [5]) [nM],IC50 (MYB mRNA [5]) [nM]
"COc1nc2c(C(=O)Nc3cc(C)c4nn(C)cc4c3OC)ccc(N3C[C@H](C)N[C@@H](C)C3)c2s1 [Compound 717, 7-[(3S,5S)-3,5-dimethylpiperazin-1-yl]-2-methoxy-N-(4-methoxy-2,7-dimethyl-indazol-5-yl)-1,3-benzothiazole-4-carboxamide]",> 10000,1000 to 10000,> 10000,1000 to 10000,1000 to 10000,> 10000,> 10000
"COc1nc2c(C(=O)Nc3cc(C)c4nn(C)cc4c3)ccc(N3C[C@H](C)N[C@@H](C)C3)c2s1 [Compound 718, N-(2,7-dimethylindazol-5-yl)-7-[(3S,5S)-3,5-dimethylpiperazin-1-yl]-2-methoxy-1,3-benzothiazole-4-carboxamide]",1000 to 10000,1000 to 10000,< 100,1000 to 10000,< 100,< 100,< 100
"COc1nc2c(C(=O)Nc3cc(F)c4nn(C)cc4c3)ccc(N3C[C@@H](C)N[C@H](C)C3)c2s1 [Compound 719, 7-[(3R,5R)-3,5-dimethylpiperazin-1-yl]-N-(7-fluoro-2-methyl-indazol-5-yl)-2-methoxy-1,3-benzothiazole-4-carboxamide]",1000 to 10000,1000 to 10000,< 100,1000 to 10000,100 to 1000,< 100,< 100
COc1nc2c(C(=O)Nc3cc(F)c4nn(C)cc4c3)ccc(N3C[C@@H](C)N[C@@H](C)C3)c2s1 [Compound 720],100 to 1000,100 to 1000,< 100,100 to 1000,< 100,< 100,< 100
"Cc1cn2cc(NC(=O)c3ccc(N4CCC(NC5CC5)CC4)c4cn(C)nc34)nc2c(CC2CCOC2)n1 (stereo not shown) [Compound 722, 4-[4-(cyclopropylamino)-1-piperidyl]-2-methyl-N-[6-methyl-8-(tetrahydrofuran-3-ylmethyl)imidazo[1,2-a]pyrazin-2-yl]indazole-7-carboxamide 2,2,2-trifluoroacetate]",> 10000,> 10000,> 10000,> 10000,1000 to 10000,> 10000,> 10000
CCNC1CCN(c2cc(Br)c(C(=O)Nc3cn4cc(C)nc4c(F)c3OC)c3nn(C)cc23)CC1 [Compound 723],100 to 1000,100 to 1000,< 100,100 to 1000,100 to 1000,< 100,< 100
"CC(=O)Nc1nc2c(C(=O)Nc3cc(F)c4nn(C)cc4c3)ccc(N3C[C@H](C)N[C@@H](C)C3)c2s1 [Compound 724, 2-acetamido-7-[(3S,5S)-3,5-dimethylpiperazin-1-yl]-N-(7-fluoro-2-methyl-indazol-5-yl)-1,3-benzothiazole-4-carboxamide]",1000 to 10000,100 to 1000,< 100,100 to 1000,1000 to 10000,< 100,< 100
"CC(=O)NCc1nc(C)cn2cc(NC(=O)c3ccc(N4CCC(NC5CC5)CC4)c4cn(C)nc34)nc12 [Compound 725, N-[8-(acetamidomethyl)-6-methyl-imidazo[1,2-a]pyrazin-2-yl]-4-[4-(cyclopropylamino)-1-piperidyl]-2-methyl-indazole-7-carboxamide]",> 10000,> 10000,> 10000,> 10000,> 10000,> 10000,> 10000
"COc1nc2c(C(=O)Nc3cc4cn(C)nc4c(C)c3O)ccc(N3C[C@H](C)N[C@@H](C)C3)c2s1 [Compound 726, 7-[(3S,5S)-3,5-dimethylpiperazin-1-yl]-N-(6-hydroxy-2,7-dimethyl-indazol-5-yl)-2-methoxy-1,3-benzothiazole-4-carboxamide]",> 10000,> 10000,1000 to 10000,> 10000,1000 to 10000,100 to 1000,1000 to 10000
"COc1nc2c(C(=O)Nc3ccc4nn(C)cc4c3F)ccc(N3C[C@H](C)N[C@@H](C)C3)c2s1 [Compound 727, 7-((3S,5S)-3,5-dimethylpiperazin-1-yl)-N-(4-fluoro-2-methyl-2H-indazol-5-yl)-2-methoxybenzo[d]thiazole-4-carboxamide 2,2,2-trifluoroacetate]",100 to 1000,100 to 1000,< 100,100 to 1000,< 100,< 100,< 100
"COc1nc2c(C(=O)Nc3cc4cn(C)nc4cc3O)ccc(N3C[C@H](C)N[C@@H](C)C3)c2s1 [Compound 728, 7-[(3S,5S)-3,5-dimethylpiperazin-1-yl]-N-(6-hydroxy-2-methyl-indazol-5-yl)-2-methoxy-1,3-benzothiazole-4-carboxamide]",> 10000,> 10000,100 to 1000,> 10000,1000 to 10000,100 to 1000,100 to 1000
"COc1nc2c(C(=O)Nc3ccc4nn(C)cc4c3OC)ccc(N3C[C@H](C)N[C@@H](C)C3)c2s1 [Compound 729, 7-[(3S,5S)-3,5-dimethylpiperazin-1-yl]-2-methoxy-N-(4-methoxy-2-methyl-indazol-5-yl)-1,3-benzothiazole-4-carboxamide]",> 10000,1000 to 10000,> 10000,1000 to 10000,1000 to 10000,> 10000,> 10000
"COc1nc2c(C(=O)Nc3ccc(=O)n(C)c3)ccc(N3C[C@H](C)N[C@@H](C)C3)c2s1 [Compound 730, 7-((3S,5S)-3,5-dimethylpiperazin-1-yl)-2-methoxy-N-(1-methyl-6-oxo-1,6-dihydropyridin-3-yl)benzo[d]thiazole-4-carboxamide 2,2,2-trifluoroacetate]",> 10000,> 10000,100 to 1000,> 10000,1000 to 10000,100 to 1000,100 to 1000
"COc1nc2c(C(=O)Nc3cc(CNS(C)(=O)=O)c4nn(C)cc4c3)ccc(N3C[C@H](C)N[C@@H](C)C3)c2s1 [Compound 731, 7-((3S,5S)-3,5-dimethylpiperazin-1-yl)-2-methoxy-N-(2-methyl-7-(methylsulfonamidomethyl)-2H-indazol-5-yl)benzo[d]thiazole-4-carboxamide 2,2,2-trifluoroacetate]",> 10000,> 10000,100 to 1000,> 10000,1000 to 10000,100 to 1000,100 to 1000
COc1nc2c(C(=O)Nc3cc(F)c4nn(C)cc4c3)ccc(N3CCN[C@@H](C(C)C)C3)c2s1 [Compound 732],> 10000,> 10000,< 100,> 10000,100 to 1000,< 100,< 100
"Cc1cn2cc(NC(=O)c3ccc(N4CCC(NC5CC5)CC4)c4cn(C)nc34)nc2c(Cn2ccc(=O)[nH]c2=O)n1 [Compound 733, 4-(4-(cyclopropylamino)piperidin-1-yl)-N-(8-((2,4-dioxo-3,4-dihydropyrimidin-1(2H)-yl)methyl)-6-methylimidazo[1,2-a]pyrazin-2-yl)-2-methyl-2H-indazole-7-carboxamide 2,2,2-trifluoroacetate]",> 10000,> 10000,> 10000,> 10000,1000 to 10000,> 10000,> 10000
